In brackets after ≈: the same amount, converted by molar mass. Numbered stars: 1 amine (or outer) side, 2 acyl side, 3 side chain; on linkers, the order of the positions; unused ones are H or OH. Square brackets hold non-standard residues; d marks the D form. Primed or numbered codes have the meaning given here. Side chains are listed from the residue outwards. Ends that are not written are not given here. Peptide text beside a SMILES is read from it. * marks the point of attachment. Orn(α-tetramethylguanidino) = CN(C)C(=N[C@@H](CCCN)C(=O)*)N(C)C; δOrn(α-TMG) = CN(C)C(=N[C@@H](CCCN[*:1])C(=O)[*:2])N(C)C; Guan″ = guanidino group at the N-terminus, N=C(N)*; sPEG750 = PEG of 750 linked via acid group; Orn = NCCC[C@H](N)C(=O)O

Data set [1] relates to Escherichia coli strain BL21AI. The data set can be described thus: Minimum inhibitory concentration in 1% TSB. In kind it is cell-based. The conditions noted are these: E. coli BL21AI, 1% TSB, 20 hours at 37° C. Here is the method: (§1) To that end, the peptides were dissolved in water and diluted in a two-fold dilution series with 1% aqueous soybean medium (TSB) in sterile 96-well plates (Greiner Bio-One GmbH) from 128 μg/ml in twelve dilution steps to 62.5 ng/ml. Overnight cultures of Escherichia coli strain BL21AI were adjusted with 1% TSB to about […] colony forming units per ml. In each case 50 μl of peptide solution per well were then mixed with in each case 50 μl of the bacteria solution, in order to achieve a starting concentration of 4×10^5 bacteria per well. After incubation for 20 hours at 37° C., the absorption at 595 nm was determined (microplate reader, TECAN Trading AG).

A short description of data set [2]: Serum stability / release of peptide in 25% aqueous mouse serum (RP-HPLC, MALDI-MS). The conditions noted are these: 25% (v/v) aqueous mouse serum.
Description: (§2) 30 μl of a 1 mg/ml peptide solution were diluted with 120 μl of water and, after addition of 50 of serum, incubated at 37° C. for 0 hours, 0.5 hour, 1 hour, 2 hours or 4 hours. Alternatively, the peptide derivatives having a starting concentration of 3 mg/ml were diluted with serum to a final concentration of 15 μg/ml. According to the stability of the peptides, the samples were analysed at the times mentioned above or after 0 hours, 4 hours and 6 hours. The serum proteins were precipitated by addition of 50 μl of 15% TCA, and the supernatant was neutralised with 25 μl of 1 mol/l NaOH. The samples were made up to 250 μl with 5% B, 230 μl of the solution were transferred into a HPLC vial, and 220 μl were injected.
(§3) RP-HPLC analysis was carried out with a linear acetonitrile gradient (Biosolve BV, Valkenswaard, Netherlands) in the presence of 0.1% trifluoroacetic acid (TFA, UV grade, Fluka Chemie GmbH, Buchs, Switzerland) as ion-pair reagent. The fractions were co-crystallised with α-cyanohydroxycinnamic acid (Bruker Daltonik GmbH; Bremen, Germany) as matrix (4 mg/ml in 60% acetonitrile in 0.1% aqueous TFA) and analysed with a tandem mass spectrometer (MALDI-TOF/TOF-MS, 4700 Proteomics Analyzer; Applied Biosystems GmbH, Weiterstadt, Germany) in positive-ion reflector mode. The amount of intact peptides and their degradation products or metabolites could thus be identified and quantified at the individual times. 25% aqueous mouse serum, which was analysed in parallel for the same time intervals, was used as control.
The conditions of data set [3]: mammalian serum (25%); cited from earlier work.
A short description of data set [4]: 25% aqueous mouse serum. To be noted: 37° C., up to 6 hours.
The conditions of data set [5]: mouse.
Description: as §2, §3
Data set [6] has as its system Escherichia coli strain BL21AI. In words: Minimum inhibitory concentration in TSB in the presence of 25% mouse serum. In kind it is cell-based. To be noted: E. coli BL21AI, TSB with 25% mouse serum, 20 hours at 37° C. Here is the method: as §1
In addition, the antibacterial activity was also determined in the presence of 25% mouse serum. To that end, the MIC values were determined as described above, but 25 μl of mouse serum were also added to each well before the incubation (25% final concentration).

The term half-life denotes the time in which the quantity being followed falls by half. For the compound `CC[C@H](C)[C@H](NC(=O)[C@H](Cc1ccc(O)cc1)NC(=O)[C@@H](NC(=O)[C@@H]1CCCN1C(=O)[C@H](CCCNC(=N)N)NC(=O)[C@H](CC(N)=O)NC(=O)[C@H](CC(N)=O)NC(=O)[C@H](CCCNC(=O)CNC(=O)[C@H](CO)NC(=O)[C@H](CCCNC(=N)N)NC(=O)CN)N=C(N(C)C)N(C)C)C(C)C)C(=O)N1CCC[C@H]1C(=O)N[C@@H](CCCNC(=N)N)C(=O)N1CCC[C@H]1C(=O)N[C@@H](CCCNC(=N)N)C(=O)N1CCC[C@H]1C(=O)N1CCC[C@H]1C(=O)N[C@@H](Cc1c[nH]cn1)C(=O)N1CCC[C@H]1C(=O)N[C@@H](CCCNC(=N)N)C(=O)N[C@@H](CC(C)C)C(=O)O` [Api 137 (GRSG)] (H-GRSG[δOrn(α-TMG)]NNRPVYIPRPRPPHPRL-OH), in data set [1], the “MIC in TSB” value was 0.7 µM (≈ 1.85 µg/mL). In data set [2], this compound displayed a half-life at 150 µg/ml of 1 h.
As to GKPRPYSPRPTSHPRPIRV [drosocin], the “Time to degradation in mammalian serum” value in data set [3] is recorded as “degraded within an hour”.
“Guan-O(GARSG)NNRPVYIPRPRPPHPRL-OH (H-GARSG[δOrn(α-TMG)]NNRPVYIPRPRPPHPRL-OH; SMILES CC[C@H](C)[C@H](NC(=O)[C@H](Cc1ccc(O)cc1)NC(=O)[C@@H](NC(=O)[C@@H]1CCCN1C(=O)[C@H](CCCNC(=N)N)NC(=O)[C@H](CC(N)=O)NC(=O)[C@H](CC(N)=O)NC(=O)[C@H](CCCNC(=O)CNC(=O)[C@H](CO)NC(=O)[C@H](CCCNC(=N)N)NC(=O)[C@H](C)NC(=O)CN)N=C(N(C)C)N(C)C)C(C)C)C(=O)N1CCC[C@H]1C(=O)N[C@@H](CCCNC(=N)N)C(=O)N1CCC[C@H]1C(=O)N[C@@H](CCCNC(=N)N)C(=O)N1CCC[C@H]1C(=O)N1CCC[C@H]1C(=O)N[C@@H](Cc1c[nH]cn1)C(=O)N1CCC[C@H]1C(=O)N[C@@H](CCCNC(=N)N)C(=O)N[C@@H](CC(C)C)C(=O)O)”: the cleaved bond entry in data set [4] is given as “R-S”.
Same read-out and setting: the same measure for “Guan-O(sPEG^750-GRSG)NNRPVYIPRPRPPHPRL-OH”: “R-S”.
Turning to “Guan-O(sPEG^750-GRSG)NNRPVYIPRPRPPHPRL-OH ({Guan″}-[Orn]([Gly-Ser-Arg-Gly-sPEG750])NNRPVYIPRPRPPHPRL-OH) [Api 137 (sPEG^750-GRSG)]”, the “Half-life (t1/2) in 25% serum” value in data set [5] is 2 h.
Turning to `CC[C@H](C)[C@H](NC(=O)[C@H](Cc1ccc(O)cc1)NC(=O)[C@@H](NC(=O)[C@@H]1CCCN1C(=O)[C@H](CCCNC(=N)N)NC(=O)[C@H](CC(N)=O)NC(=O)[C@H](CC(N)=O)NC(=O)[C@H](CCCN)N=C(N(C)C)N(C)C)C(C)C)C(=O)N1CCC[C@H]1C(=O)N[C@@H](CCCNC(=N)N)C(=O)N1CCC[C@H]1C(=O)N[C@@H](CCCNC(=N)N)C(=O)N1CCC[C@H]1C(=O)N1CCC[C@H]1C(=O)N[C@@H](Cc1c[nH]cn1)C(=O)N1CCC[C@H]1C(=O)N[C@@H](CCCNC(=N)N)C(=O)N[C@@H](CC(C)C)C(=O)O` [Api 137, Guan-ONNRPVYIPRPRPPHPRL-OH, reference compound] ({Orn(α-tetramethylguanidino)}-NNRPVYIPRPRPPHPRL-OH), the “MIC in TSB” value in data set [1] came out at 0.46 µM (≈ 1.05 µg/mL). The “MIC in TSB/mouse serum” value in data set [6] came to 0.23 µM. Also, the half-life at 150 µg/ml in data set [2] is more than 6 h.
As to “Guan-O(sPEG^750-GARSG)NNRPVYIPRPRPPHPRL-OH ({Guan″}-[Orn]NNRPVYIPRPRPPHPRL-OH; not fully specified (residue 1)) [Api 137 (sPEG^750-GARSG)]”, the “MIC in TSB” value in data set [1] was determined as 1.1 µM. For the same compound, the “Half-life (t1/2) in 25% serum” value in data set [5] amounted to 1 h.
On to “Guan-O(sPEG^750-GARSG)NNRPVYIPRPRPPHPRL-OH”, for which, in data set [4], the cleaved bond entry is given as “R-S”.
As for `CC[C@H](C)[C@H](NC(=O)[C@H](Cc1ccc(O)cc1)NC(=O)[C@@H](NC(=O)[C@@H]1CCCN1C(=O)[C@H](CCCNC(=N)N)NC(=O)[C@H](CC(N)=O)NC(=O)[C@H](CC(N)=O)NC(=O)[C@H](CCCNC(=O)CNC(=O)[C@H](CO)NC(=O)[C@H](CCCNC(=N)N)NC(=O)[C@H](C)NC(=O)CN)N=C(N(C)C)N(C)C)C(C)C)C(=O)N1CCC[C@H]1C(=O)N[C@@H](CCCNC(=N)N)C(=O)N1CCC[C@H]1C(=O)N[C@@H](CCCNC(=N)N)C(=O)N1CCC[C@H]1C(=O)N1CCC[C@H]1C(=O)N[C@@H](Cc1c[nH]cn1)C(=O)N1CCC[C@H]1C(=O)N[C@@H](CCCNC(=N)N)C(=O)N[C@@H](CC(C)C)C(=O)O` [Api 137 (GARSG)] (H-GARSG[δOrn(α-TMG)]NNRPVYIPRPRPPHPRL-OH), in data set [1], the “MIC in TSB” value came out at 0.9 µM (≈ 2.45 µg/mL). Moreover, the half-life at 150 µg/ml in data set [2] was determined as 0.5 h.

These data come from patent publication US9856298B2 (priority 2011, dated 2018).
